According to ChEMBL document CHEMBL3885861, “Open TG-GATES”:

Species on record: Rattus norvegicus
Assay: Open TG-GATES - Regimen: Daily Repeat
Type: toxicity, organism-based, Sprague-Dawley
Design: regimen Daily Repeat, gender Male, age 6 weeks
Conditions: in vivo, po, route gavage; for APTT / Bas / Eos / Fbg / Hb / Ht / Lym / MCH / MCHC / MCV / Mono / Neu / PT / Plat / RBC / Ret / WBC: tissue Blood; for KIDNEY_L / KIDNEY_R / KIDNEY_TOTAL: tissue Kidney; for LIVER: tissue Liver; for A/G / ALP / ALT / AST / BUN / CRE / Ca / Cl / DBIL / GLC / IP / K / LDH / Na / PL / RALB / TBIL / TC / TG / TP / gamma-GTP: tissue Plasma
[1] = 50 mg/kg, 72 h, dose level Middle, time 3 day
[2] = 50 mg/kg, […], dose level Middle, time 7 day
[3] = 50 mg/kg, […], dose level Middle, time 14 day
[4] = 50 mg/kg, […], dose level Middle, time 28 day
[5] = 150 mg/kg, 72 h, dose level High, time 3 day
[6] = 150 mg/kg, […], dose level High, time 7 day
[7] = 150 mg/kg, […], dose level High, time 14 day
[8] = 150 mg/kg, […], dose level High, time 28 day

## CC(C)C(=O)Nc1ccc([N+](=O)[O-])c(C(F)(F)F)c1 [FLUTAMIDE]
[1]
  TERMINAL_BW: 215.7 g
  APTT: 18.3 s
  Bas: 0%
  Eos: 1.2%
  Fbg: 217 mg/dL
  Hb: 14.3 g/dL
  Ht: 43.4%
  Lym: 78%
  MCH: 20.9 pg
  MCHC: 32.9%
  MCV: 63.5 fL
  Mono: 2.6%
  Neu: 17.4%
  PT: 12.3 s
  Plat: 115.2 x10_4/uL
  RBC: 685 x10_4/ul
  Ret: 4.1%
  WBC: 77.6 x10_2/uL
  KIDNEY_L: 0.9 g
  KIDNEY_R: 1 g
  KIDNEY_TOTAL: 1.9 g
  LIVER: 11.1 g
  A/G: 1.7
  ALP: 1001 IU/L
  ALT: 38 IU/L
  AST: 66.2 IU/L
  BUN: 14.6 mg/dL
  CRE: 0.4 mg/dL
  Ca: 10.7 mg/dL
  Cl: 105 meq/L
  DBIL: 0.098 mg/dL
  GLC: 210.8 mg/dL
  IP: 6.9 mg/dL
  K: 3.6 meq/L
  LDH: 175.8 IU/L
  Na: 142 meq/L
  PL: 162.4 mg/dL
  RALB: 3.6 g/dL
  TBIL: 0.2 mg/dL
  TC: 97.8 mg/dL
  TG: 66.6 mg/dL
  TP: 5.7 g/dL
  gamma-GTP: 1 IU/L
[2]
  TERMINAL_BW: 244.8 g
  APTT: 16.9 s
  Bas: 0%
  Eos: 1%
  Fbg: 221.4 mg/dL
  Hb: 13.6 g/dL
  Ht: 40.5%
  Lym: 82.2%
  MCH: 20.6 pg
  MCHC: 33.7%
  MCV: 61.2 fL
  Mono: 2.6%
  Neu: 13.8%
  PT: 12.7 s
  Plat: 126 x10_4/uL
  RBC: 661.8 x10_4/ul
  Ret: 4.8%
  WBC: 115.5 x10_2/uL
  KIDNEY_L: 1 g
  KIDNEY_R: 1 g
  KIDNEY_TOTAL: 2 g
  LIVER: 12.8 g
  A/G: 1.7
  ALP: 753 IU/L
  ALT: 36.4 IU/L
  AST: 54.4 IU/L
  BUN: 15.6 mg/dL
  CRE: 0.4 mg/dL
  Ca: 10.9 mg/dL
  Cl: 103.8 meq/L
  DBIL: 0.09 mg/dL
  GLC: 215.2 mg/dL
  IP: 6.8 mg/dL
  K: 3.7 meq/L
  LDH: 169.2 IU/L
  Na: 140.6 meq/L
  PL: 156.2 mg/dL
  RALB: 3.7 g/dL
  TBIL: 0.1 mg/dL
  TC: 88.4 mg/dL
  TG: 67 mg/dL
  TP: 6 g/dL
  gamma-GTP: 0.2 IU/L
[3]
  TERMINAL_BW: 289.8 g
  APTT: 20.1 s
  Bas: 0%
  Eos: 1%
  Fbg: 216.8 mg/dL
  Hb: 14.2 g/dL
  Ht: 41.8%
  Lym: 82%
  MCH: 20.7 pg
  MCHC: 34.1%
  MCV: 60.9 fL
  Mono: 1.8%
  Neu: 14.4%
  PT: 12.6 s
  Plat: 116.7 x10_4/uL
  RBC: 687.8 x10_4/ul
  Ret: 4%
  WBC: 138.1 x10_2/uL
  KIDNEY_L: 1.2 g
  KIDNEY_R: 1.1 g
  KIDNEY_TOTAL: 2.3 g
  LIVER: 14.8 g
  A/G: 1.5
  ALP: 685.8 IU/L
  ALT: 33.2 IU/L
  AST: 59.2 IU/L
  BUN: 14.4 mg/dL
  CRE: 0.5 mg/dL
  Ca: 10.6 mg/dL
  Cl: 103.8 meq/L
  DBIL: 0.086 mg/dL
  GLC: 192 mg/dL
  IP: 6.2 mg/dL
  K: 3.8 meq/L
  LDH: 148 IU/L
  Na: 141.8 meq/L
  PL: 132 mg/dL
  RALB: 3.5 g/dL
  TBIL: 0.1 mg/dL
  TC: 70.6 mg/dL
  TG: 58.6 mg/dL
  TP: 5.9 g/dL
  gamma-GTP: 1 IU/L
[4]
  TERMINAL_BW: 352.3 g
  APTT: 19.2 s
  Bas: 0%
  Eos: 1%
  Fbg: 225 mg/dL
  Hb: 15 g/dL
  Ht: 42.3%
  Lym: 83.8%
  MCH: 20.2 pg
  MCHC: 35.6%
  MCV: 56.9 fL
  Mono: 2%
  Neu: 12.2%
  PT: 12.5 s
  Plat: 107.9 x10_4/uL
  RBC: 743.2 x10_4/ul
  Ret: 2.1%
  WBC: 114.3 x10_2/uL
  KIDNEY_L: 1.3 g
  KIDNEY_R: 1.3 g
  KIDNEY_TOTAL: 2.5 g
  LIVER: 16.8 g
  A/G: 1.5
  ALP: 449.8 IU/L
  ALT: 30.6 IU/L
  AST: 48.6 IU/L
  BUN: 17.4 mg/dL
  CRE: 0.5 mg/dL
  Ca: 10.5 mg/dL
  Cl: 103.8 meq/L
  DBIL: 0.078 mg/dL
  GLC: 227.2 mg/dL
  IP: 6.9 mg/dL
  K: 3.5 meq/L
  LDH: 124.2 IU/L
  Na: 141.8 meq/L
  PL: 167.4 mg/dL
  RALB: 3.8 g/dL
  TBIL: 0.1 mg/dL
  TC: 93.2 mg/dL
  TG: 54.2 mg/dL
  TP: 6.3 g/dL
  gamma-GTP: 1.6 IU/L
[5]
  TERMINAL_BW: 205.8 g
  APTT: 17.2 s
  Bas: 0%
  Eos: 0.8%
  Fbg: 219 mg/dL
  Hb: 14.3 g/dL
  Ht: 43.1%
  Lym: 87.4%
  MCH: 21.2 pg
  MCHC: 33.3%
  MCV: 63.6 fL
  Mono: 2.4%
  Neu: 8.6%
  PT: 12.6 s
  Plat: 125 x10_4/uL
  RBC: 677.2 x10_4/ul
  Ret: 3.5%
  WBC: 86 x10_2/uL
  KIDNEY_L: 0.9 g
  KIDNEY_R: 0.9 g
  KIDNEY_TOTAL: 1.8 g
  LIVER: 12.3 g
  A/G: 1.7
  ALP: 1049 IU/L
  ALT: 35.4 IU/L
  AST: 54.2 IU/L
  BUN: 13.2 mg/dL
  CRE: 0.5 mg/dL
  Ca: 10.5 mg/dL
  Cl: 103.4 meq/L
  DBIL: 0.1 mg/dL
  GLC: 203.2 mg/dL
  IP: 7.7 mg/dL
  K: 3.4 meq/L
  LDH: 196.2 IU/L
  Na: 141 meq/L
  PL: 185.2 mg/dL
  RALB: 3.6 g/dL
  TBIL: 0.2 mg/dL
  TC: 113.2 mg/dL
  TG: 77.8 mg/dL
  TP: 5.7 g/dL
  gamma-GTP: 1.4 IU/L
[6]
  TERMINAL_BW: 233.5 g
  APTT: 18.2 s
  Bas: 0%
  Eos: 1%
  Fbg: 224.6 mg/dL
  Hb: 13.5 g/dL
  Ht: 40.3%
  Lym: 81%
  MCH: 20.7 pg
  MCHC: 33.4%
  MCV: 62 fL
  Mono: 2.8%
  Neu: 14.6%
  PT: 12.6 s
  Plat: 123.7 x10_4/uL
  RBC: 651 x10_4/ul
  Ret: 4.3%
  WBC: 111.1 x10_2/uL
  KIDNEY_L: 1 g
  KIDNEY_R: 1 g
  KIDNEY_TOTAL: 2 g
  LIVER: 15.7 g
  A/G: 1.5
  ALP: 797.6 IU/L
  ALT: 32.8 IU/L
  AST: 46 IU/L
  BUN: 16 mg/dL
  CRE: 0.4 mg/dL
  Ca: 10.7 mg/dL
  Cl: 102.8 meq/L
  DBIL: 0.086 mg/dL
  GLC: 199.8 mg/dL
  IP: 7.1 mg/dL
  K: 3.5 meq/L
  LDH: 177.8 IU/L
  Na: 140.6 meq/L
  PL: 186.8 mg/dL
  RALB: 3.7 g/dL
  TBIL: 0.2 mg/dL
  TC: 110.6 mg/dL
  TG: 42.6 mg/dL
  TP: 6.2 g/dL
  gamma-GTP: 2 IU/L
[7]
  TERMINAL_BW: 269.7 g
  APTT: 18.9 s
  Bas: 0%
  Eos: 1%
  Fbg: 228.2 mg/dL
  Hb: 13.9 g/dL
  Ht: 41.5%
  Lym: 79.4%
  MCH: 19.9 pg
  MCHC: 33.6%
  MCV: 59.3 fL
  Mono: 3.2%
  Neu: 15.2%
  PT: 12.9 s
  Plat: 115.7 x10_4/uL
  RBC: 699.6 x10_4/ul
  Ret: 4.5%
  WBC: 115.1 x10_2/uL
  KIDNEY_L: 1.1 g
  KIDNEY_R: 1.2 g
  KIDNEY_TOTAL: 2.2 g
  LIVER: 16.8 g
  A/G: 1.7
  ALP: 726.8 IU/L
  ALT: 31 IU/L
  AST: 47.4 IU/L
  BUN: 15 mg/dL
  CRE: 0.5 mg/dL
  Ca: 10.5 mg/dL
  Cl: 103.4 meq/L
  DBIL: 0.096 mg/dL
  GLC: 181.2 mg/dL
  IP: 6.3 mg/dL
  K: 3.8 meq/L
  LDH: 173.8 IU/L
  Na: 140.4 meq/L
  PL: 168.8 mg/dL
  RALB: 3.8 g/dL
  TBIL: 0.2 mg/dL
  TC: 104.4 mg/dL
  TG: 32.2 mg/dL
  TP: 6 g/dL
  gamma-GTP: 2.8 IU/L
[8]
  TERMINAL_BW: 325.6 g
  APTT: 18.2 s
  Bas: 0%
  Eos: 1.2%
  Fbg: 237 mg/dL
  Hb: 13.7 g/dL
  Ht: 39.9%
  Lym: 81.6%
  MCH: 19.5 pg
  MCHC: 34.3%
  MCV: 56.9 fL
  Mono: 2.6%
  Neu: 13.6%
  PT: 12.8 s
  Plat: 98 x10_4/uL
  RBC: 700.6 x10_4/ul
  Ret: 3.7%
  WBC: 112 x10_2/uL
  KIDNEY_L: 1.1 g
  KIDNEY_R: 1.2 g
  KIDNEY_TOTAL: 2.3 g
  LIVER: 20 g
  A/G: 1.8
  ALP: 642.2 IU/L
  ALT: 29.2 IU/L
  AST: 45.2 IU/L
  BUN: 16.4 mg/dL
  CRE: 0.5 mg/dL
  Ca: 10.7 mg/dL
  Cl: 104 meq/L
  DBIL: 0.1 mg/dL
  GLC: 204.4 mg/dL
  IP: 7.6 mg/dL
  K: 3.7 meq/L
  LDH: 110.8 IU/L
  Na: 141.8 meq/L
  PL: 167.4 mg/dL
  RALB: 4.3 g/dL
  TBIL: 0.2 mg/dL
  TC: 97.4 mg/dL
  TG: 26.6 mg/dL
  TP: 6.8 g/dL
  gamma-GTP: 1.8 IU/L
